Laboratory results taken from patent publication US11357871B2, “Challenge test for diagnosing subtypes of ASD” (Stalicla S.A., priority 2017, dated 2022).
Where two headings read alike, the source gives them in different places.

Assays:
[1] = tested on: lymphoblastoid cell lines of ASD phenotype 1 patients; assay: Biolog Phenotype Mammalian MicroArray (PM-M) NADH/energy production, phenotype 1 cells; assay type: cell-based, human; conditions: cells exposed to the substance; AUC (Figure 1) and endpoint absorbance (Table 1)
Protocol: From all subjects, blood samples were collected and lymphoblastoid cell lines generated. Briefly, tubes containing anticoagulant citrate dextrose (ACD) were used to collect blood samples via venipuncture, in order to ensure that the blood cells remained metabolically active. The tubes were kept at room temperature and processed within 24 hours.
Cell lines were obtained by immortalization of lymphocytes from blood samples using Epstein-Barr virus.
Energy production of cells was measured using commercially available Phenotype Mammalian MicroArrays (PM-Ms, Biolog, Hayward, Calif., USA).
The compound in each well was designed to be used by the cells, either as the sole energy source or as the metabolic effector influencing the utilization of an energy source (α-D-glucose) added in the cell suspension. […] Before plating, cell viability and number were assessed utilizing a BioRad cell counter and a trypan blue dye. The concentration of live cells required for plating was 4×10^5 cells/mL, corresponding to 20,000 cells per well in a volume of 50 μL. […] Cells were incubated for 48 h at 37° C. in 5% CO2, using the modified Biolog IF-M1 medium.
The Biolog IF-M1 medium was modified for plates PM-M1 to M4 by adding the following to 100 mL of Biolog IF-M1: 1.1 mL of 100× penicillin/streptomycin solution, 0.16 mL of 200 mM glutamine (final concentration 0.3 mM), and 5.3 mL of Fetal Bovine Serum (FBS, final concentration 5%). For plates PM-M5 to M8, 5.5 mM α-D-glucose will be added in place of FBS.
During the 48-hour incubation, the only energy source the cells had was the chemical in the well. After this first incubation, Biolog Redox Dye Mix MB was added (10 μL/well) and the plates were incubated under the same conditions for an additional 24 hours. As the cells metabolized the energy source, tetrazolium dye in the media was reduced, producing a purple color according to the amount of NADH generated.
For the last 24 hours of the experiment, the plates were incubated in the Omnilog system, which collects optical density readings every 15 minutes, generating 96 data-points for each well. The system also elaborated the kinetic curve for the metabolic reaction in each well and extrapolated parameters such as slope, highest point, endpoint, area under the curve (AUC), and lag.
At the end of the 24-hour incubation, the plates were analyzed utilizing a microplate reader with readings at 590 and 750 nm. The first value (A590) indicated the highest absorbance peak of the redox dye and the second value (A750) gave a measure of the background noise. The relative absorbance (A590-750) was calculated per well.

ASD phenotype 1 patients = assay: Nrf2-activator challenge test, ASD phenotype 1 patients (ADI-R, CGI-S, CGI-I); assay type: in vivo, human; conditions: selected patient cohort
Protocol: (§1) The effects of sulforaphane containing Broccoli sprout extract was observed and quantified in 7 individuals suffering from ASD and previously classified as either phenotype 1 or phenotype 2 patients.
The extract was prepared from selected broccoli seeds known to have high yield of sulforaphane which were surface-disinfected and grown (sprouted) for 3 days in a commercial sprouting facility under controlled light and moisture conditions.

ASD phenotype 2 patients = conditions: wording of CGI-I rating
Protocol: as §1
We describe a procedure consisting of an evaluation of patients with ASD prior and after administration of broccoli sprout extract. The extract was prepared from selected broccoli seeds known to have high yield of sulforaphane which were surface-disinfected and grown (sprouted) for 3 days in a commercial sprouting facility under controlled light and moisture conditions. A boiling water extract was prepared, filtered, cooled, and treated with the enzyme myrosinase (from daikon sprouts) to convert precursor glucosinolates to isothiocyanates. Behavioral evaluation of patients was performed prior, during and after administration of sulforaphane-containing broccoli sprout extract. Baseline evaluation of patients was performed using standard clinical endpoints (ADI-R subscales ADI-SI, ADI-C and ADI-RI).
Challenge regimen consisted of the administration of a Broccoli Sprout Extract dose corresponding to a total daily dosage of 4 μmol/kg of sulforaphane, administered in 3 doses over the course of the day. […]

| Molecule | NADH production of ASD phenotype 1 cells compared to TDs and non-phenotype 1 cells [1] | further results |
| --- | --- | --- |
| hGH(Somatotropin): growth factor that selectively targets the PI3K-Akt-mTOR pathway | significantly reduced production of NADH |  |
| PDGF-AB: platelet-derived growth factor AB | no significant differences |  |
| C[S@@+]([O-])CCCCN=C=S [sulforaphane, 1-isothiocyanato-4R-(methylsulfinyl)butane] |  | reduction of disease severity as measured through the ADI-R, SRS and GGI-S/CGI-I (ASD phenotype 1 patients): not effective in reducing disease severity; Clinical significance (ASD phenotype 2 patients; Example 4 Patient 1 (phenotype 2)): Very much improved; Clinical significance (ASD phenotype 2 patients; Example 4 Patient 2 (phenotype 2)): Very much improved |
| IGF-I: insulin-like growth factor 1 | no significant differences |  |
| FGF-1(aFGF): growth factor that selectively targets the PI3K-Akt-mTOR pathway | significantly reduced production of NADH |  |
| IL-1beta: Th1 cytokine | significantly lower levels of NADH |  |
| IL-6: Th1 cytokine | significantly lower levels of NADH |  |
